Read-outs that look alike come from different tables or passages of the source. Some results are limits rather than exact numbers.

The values below come from patent US20260325533A1, “CDK INHIBITOR COMPOUNDS” (ALEKSIA THERAPEUTICS, INC., priority 2023, published 2026).

Common to all, as to type: biochemical
The target in assay [1] is CDK6/CCND1 (Homo sapiens, UniProt Q00534). Put plainly: CDK6 homogeneous time-resolved fluorescence (HTRF) kinase assay. As to conditions: CDK6/CCND. The procedure, abridged:
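Assay conditions: HEPES buffer containing 10 mM MgCl2, 1 mM EGTA, 2 mM DTT, 0.01% Tween 20; 1 nM CDK6/CCND1, 50 nM peptide substrate, 1 mM ATP. Detection after 60 min reaction used 2 nM europium antibody with 340 nm excitation. Potency fitted from half-log series, 11 points.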
(In general: In TR-FRET formats the signal depends on donor and acceptor labels being close together.)

The target in assay [2] is CDK2/CCNE1 (Homo sapiens, UniProt P24941). Put plainly: CDK2 homogeneous time-resolved fluorescence (HTRF) kinase assay. As to conditions: CDK2/CCNE. The procedure, abridged: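 An HTRF format measures CDK2/CCNE1 (3 nM) phosphorylating a 4E-BP1 Thr37/46 peptide at high (1 mM) ATP. Reactions run one hour at 23 °C, then EDTA-quenched and probed with Eu-labelled phospho-specific antibody.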

In assay [3] the target is CDK4/CCND3 (Homo sapiens, UniProt P11802). The assay can be described thus: CDK4 homogeneous time-resolved fluorescence (HTRF) kinase assay. As to conditions: CDK4/CCND. The procedure, abridged:
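TR-FRET read (665 nm, or 665/615 ratio) of 4E-BP1 Thr37/46 phosphorylation by 1.5 nM CDK4/CCND3 at 1 mM ATP, 50 nM ULight peptide, 1% DMSO. Reaction ran 60 min at 23 °C after 20 min compound–enzyme preincubation. IC50 from 11-point half-log dilutions, top 10 μM.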

Assay [4] has as its target CDK1/CCNB1 (Homo sapiens, UniProt P06493). Put plainly: CDK1 homogeneous time-resolved fluorescence (HTRF) kinase assay. As to conditions: CDK1/CCNB. The procedure, abridged: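 CDK1/CCNB1 0.5 nM + cpd, 20 min 23 °C; add 1 mM ATP, 50 nM ULight-4E-BP1 peptide, 60 min 23 °C; stop 10 mM EDTA; 2 nM Eu-Ab, 60 min; HTRF 665 nm. 11-pt half-log, top 10 μM typical; IC50.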
[5] abbreviates: x = IC50 >250 nM, read-out: CDK6/CCND IC50 (>250 nM column).
Setting [6] is: x = IC50 25-250 nM, read-out: CDK2/CCNE IC50 (25-250 nM).
Setting [7] is: x = IC50 >250 nM, read-out: CDK4/CCND IC50 (>250 nM column).
The mark [8] stands for this setting: x = IC50 >250 nM, read-out: CDK1/CCNB IC50 (>250 nM column).
Setting [9] is: x = IC50 25-250 nM, read-out: CDK6/CCND IC50 (25-250 nM).
Setting [10] is: x = IC50 <25 nM, read-out: CDK2/CCNE IC50 (<25 nM).
Where [11] appears, read: x = IC50 25-250 nM, read-out: CDK4/CCND IC50 (25-250 nM).
Setting [12] is: x = IC50 25-250 nM, read-out: CDK1/CCNB IC50 (25-250 nM).

CDK1/CCNB1, sequence (P06493 whole entry): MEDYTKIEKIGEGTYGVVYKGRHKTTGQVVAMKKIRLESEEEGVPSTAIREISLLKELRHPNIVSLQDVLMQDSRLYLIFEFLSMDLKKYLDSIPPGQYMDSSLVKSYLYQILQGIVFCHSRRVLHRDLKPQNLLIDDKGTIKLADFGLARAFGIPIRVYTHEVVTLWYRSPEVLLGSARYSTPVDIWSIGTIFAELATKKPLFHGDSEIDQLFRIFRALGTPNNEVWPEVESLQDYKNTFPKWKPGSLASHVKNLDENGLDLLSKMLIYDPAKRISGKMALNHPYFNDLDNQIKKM
CDK1/CCNB1, sequence (P14635 whole entry partner): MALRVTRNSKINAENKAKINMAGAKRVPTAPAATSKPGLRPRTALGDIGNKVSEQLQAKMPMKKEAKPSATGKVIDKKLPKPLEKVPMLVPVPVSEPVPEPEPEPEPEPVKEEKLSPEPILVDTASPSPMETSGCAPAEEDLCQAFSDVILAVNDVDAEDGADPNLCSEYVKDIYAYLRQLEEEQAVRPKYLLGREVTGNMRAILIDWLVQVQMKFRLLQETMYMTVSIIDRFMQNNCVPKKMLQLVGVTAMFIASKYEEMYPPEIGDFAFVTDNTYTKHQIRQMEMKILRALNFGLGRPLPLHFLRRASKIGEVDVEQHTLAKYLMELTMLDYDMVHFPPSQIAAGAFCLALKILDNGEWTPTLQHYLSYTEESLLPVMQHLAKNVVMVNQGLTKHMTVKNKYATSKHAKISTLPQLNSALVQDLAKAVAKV
CDK4/CCND3, sequence (P11802 whole entry): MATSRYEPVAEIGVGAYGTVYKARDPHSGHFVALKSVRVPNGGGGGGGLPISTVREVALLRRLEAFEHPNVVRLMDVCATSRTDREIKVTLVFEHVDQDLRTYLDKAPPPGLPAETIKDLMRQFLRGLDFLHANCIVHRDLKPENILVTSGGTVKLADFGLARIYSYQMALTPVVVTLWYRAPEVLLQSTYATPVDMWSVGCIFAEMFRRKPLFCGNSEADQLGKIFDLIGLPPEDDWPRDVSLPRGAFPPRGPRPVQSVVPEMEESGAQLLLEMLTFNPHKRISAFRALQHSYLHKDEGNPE
CDK4/CCND3, sequence (P30281 whole entry partner): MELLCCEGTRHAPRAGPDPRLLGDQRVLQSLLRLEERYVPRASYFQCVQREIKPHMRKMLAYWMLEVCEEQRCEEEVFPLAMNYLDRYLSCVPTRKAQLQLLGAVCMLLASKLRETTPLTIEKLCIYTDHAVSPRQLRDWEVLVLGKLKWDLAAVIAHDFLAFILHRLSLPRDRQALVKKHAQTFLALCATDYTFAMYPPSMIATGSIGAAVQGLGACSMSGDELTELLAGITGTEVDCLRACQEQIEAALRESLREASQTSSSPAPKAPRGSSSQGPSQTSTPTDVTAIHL
CDK6/CCND1, sequence (Q00534 whole entry): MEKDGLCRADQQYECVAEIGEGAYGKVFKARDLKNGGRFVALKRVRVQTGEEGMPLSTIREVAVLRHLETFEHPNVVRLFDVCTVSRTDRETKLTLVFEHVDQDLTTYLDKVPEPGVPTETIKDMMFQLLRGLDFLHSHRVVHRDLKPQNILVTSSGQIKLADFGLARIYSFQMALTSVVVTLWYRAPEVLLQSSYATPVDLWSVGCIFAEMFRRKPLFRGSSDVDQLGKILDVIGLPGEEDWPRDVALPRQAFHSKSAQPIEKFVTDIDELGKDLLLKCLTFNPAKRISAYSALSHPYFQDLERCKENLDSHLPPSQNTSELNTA
CDK6/CCND1, sequence (P24385 whole entry partner): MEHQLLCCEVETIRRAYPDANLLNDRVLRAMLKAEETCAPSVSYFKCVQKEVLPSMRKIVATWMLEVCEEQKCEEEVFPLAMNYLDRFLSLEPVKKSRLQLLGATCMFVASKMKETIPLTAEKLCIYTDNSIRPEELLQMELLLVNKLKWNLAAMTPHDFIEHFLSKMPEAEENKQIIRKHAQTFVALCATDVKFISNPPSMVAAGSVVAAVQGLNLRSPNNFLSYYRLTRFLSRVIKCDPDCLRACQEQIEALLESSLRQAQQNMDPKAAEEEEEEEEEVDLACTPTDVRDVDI

With `CN=S(C)(=O)c1ccc(Nc2cc3c(-c4ccc5c(cnn5CC(O)(C(F)(F)F)C(F)(F)F)c4C)nccc3cn2)cc1` (racemic) [Ex 470, methyl(4-((5-(4-methyl-1-(3,3,3-trifluoro-2-hydroxy-2-(trifluoromethyl)propyl)-1H-indazol-5-yl)-2,6-naphthyridin-3-yl)amino)phenyl)(methylimino)-l6-sulfanone], the IC50 in assay [1] (setting [5]) is over 250 nM; in assay [2] (setting [6]), 25 to 250 nM; in assay [3] (setting [7]), over 250 nM; in assay [4] (setting [8]), over 250 nM.
On to `CCS(=N)(=O)c1ccc(Nc2cc3c(-c4ccc5c(cnn5CC(O)(C(F)(F)F)C(F)(F)F)c4C)nccc3cn2)cc1` (racemic) [Ex 473, ethyl(imino)(4-((5-(4-methyl-1-(3,3,3-trifluoro-2-hydroxy-2-(trifluoromethyl)propyl)-1H-indazol-5-yl)-2,6-naphthyridin-3-yl)amino)phenyl)-l6-sulfanone], for which the IC50 was 25 to 250 nM in assay [1] (setting [9]), under 25 nM in assay [2] (setting [10]), 25 to 250 nM in assay [3] (setting [11]) and over 250 nM in assay [4] (setting [8]).
As to `CS(=O)(=O)c1ccc(Nc2cc3c(C#CC(O)CO)nccc3cn2)cc1` (racemic) [Ex 477, 4-(7-((4-(methylsulfonyl)phenyl)amino)-2,6-naphthyridin-1-yl)but-3-yne-1,2-diol], the IC50 is over 250 nM in assay [1] (setting [5]), under 25 nM in assay [2] (setting [10]), over 250 nM in assay [3] (setting [7]) and over 250 nM in assay [4] (setting [8]).
In the case of `CCS(=N)(=O)c1ccc(Nc2cc3c(C#Cc4ccc5oc(=O)[nH]c5c4)nccc3cn2)cc1` (racemic) [Ex 479, 5-((7-((4-(ethylsulfonimidoyl)phenyl)amino)-2,6-naphthyridin-1-yl)ethynyl)benzo[d]oxazol-2(3H)-one], the IC50 in assay [1] (setting [9]) was 25 to 250 nM; in assay [2] (setting [10]), under 25 nM; in assay [3] (setting [11]) it was 25 to 250 nM; in assay [4] (setting [12]), 25 to 250 nM.
Consider `CCS(=N)(=O)c1ccc(Nc2cc3c(C#Cc4ccc(=O)[nH]n4)nccc3cn2)cc1` (racemic) [Ex 485, 6-((7-((4-(ethylsulfonimidoyl)phenyl)amino)-2,6-naphthyridin-1-yl)ethynyl)pyridazin-3(2H)-one], for which the IC50 in assay [1] (setting [5]) is over 250 nM; in assay [2] (setting [10]) it was under 25 nM; in assay [3] (setting [7]), over 250 nM; in assay [4] (setting [8]), over 250 nM.
As for `CCS(=N)(=O)c1ccc(Nc2cc3c(C#Cc4cccnc4N)nccc3cn2)cc1` (racemic) [Ex 489, (4-((5-((2-aminopyridin-3-yl)ethynyl)-2,6-naphthyridin-3-yl)amino)phenyl)(ethyl)(imino)-l6-sulfanone], the IC50 in assay [1] (setting [5]) is over 250 nM; in assay [2] (setting [6]) it was 25 to 250 nM; in assay [3] (setting [7]), over 250 nM; in assay [4] (setting [8]) it was over 250 nM.
Take `CS(=N)(=O)c1ccc(Nc2cc3c(C#Cc4ccc5oc(=O)[nH]c5c4)nccc3cn2)cc1` (racemic) [Ex 491, 5-((7-((4-(S-methylsulfonimidoyl)phenyl)amino)-2,6-naphthyridin-1-yl)ethynyl)benzo[d]oxazol-2(3H)-one]: the IC50 in assay [1] (setting [9]) is 25 to 250 nM; in assay [1] (setting [5]), over 250 nM; in assay [2] (setting [10]), under 25 nM; in assay [3] (setting [11]), 25 to 250 nM; in assay [4] (setting [12]), 25 to 250 nM.
`CS(=N)(=O)c1ccc(Nc2cc3c(C#Cc4ccc(=O)[nH]n4)nccc3cn2)cc1` (racemic) [Ex 497, 6-((7-((4-(S-methylsulfonimidoyl)phenyl)amino)-2,6-naphthyridin-1-yl)ethynyl)pyridazin-3(2H)-one]: the IC50 is over 250 nM in assay [1] (setting [5]), under 25 nM in assay [2] (setting [10]), over 250 nM in assay [3] (setting [7]) and over 250 nM in assay [4] (setting [8]).
Regarding `CS(=N)(=O)c1ccc(Nc2cc3c(C#Cc4ccc(C#N)cc4)nccc3cn2)cc1` (racemic) [Ex 526, 4-((7-((4-(S-methylsulfonimidoyl)phenyl)amino)-2,6-naphthyridin-1-yl)ethynyl)benzonitrile], the IC50 in assay [1] (setting [5]) is over 250 nM; in assay [2] (setting [6]), 25 to 250 nM; in assay [3] (setting [7]), over 250 nM; in assay [4] (setting [8]), over 250 nM.
